The supplement of paper PMC10307832

Legend:
Assay in all cases: relative viability (nuclei count vs DMSO), 5 days (fraction); higher = more cells survive
Crenolanib + Trametinib = compound: CC1(COc2ccc3c(c2)ncn3-c2ccc3cccc(N4CCC(N)CC4)c3n2)COC1 [Crenolanib] + CC(=O)Nc1cccc(-n2c(=O)n(C3CC3)c(=O)c3c(Nc4ccc(I)cc4F)n(C)c(=O)c(C)c32)c1 [Trametinib] (partner 0.02 µM)
Procedure, shortened: (§1)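 Lung cancer cell lines were seeded in 1536-well plates and dosed by pin tool the next day, with either a single drug or a fixed anchor-drug dose combined with five library-drug doses (not always all listed) spaced in √10 steps. Five days later, one step fixed the cells and stained their nuclei (final 0.05% Triton X-100, 1% formaldehyde, 1 ug/ml Hoechst), and nuclei were counted on 4× images. Relative viability is the nuclei count in treated wells divided by the count in vehicle wells, and each value is the median of duplicate plates.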

Crenolanib + Alpelisib = compound: CC1(COc2ccc3c(c2)ncn3-c2ccc3cccc(N4CCC(N)CC4)c3n2)COC1 [Crenolanib] + Cc1nc(NC(=O)N2CCC[C@H]2C(N)=O)sc1-c1ccnc(C(C)(C)C(F)(F)F)c1 [Alpelisib] (partner 2 µM)
Procedure, shortened: as §1

Crenolanib + Phenformin = compound: CC1(COc2ccc3c(c2)ncn3-c2ccc3cccc(N4CCC(N)CC4)c3n2)COC1 [Crenolanib] + N=C(N)NC(=N)NCCc1ccccc1 [Phenformin] (partner 250 µM)
Procedure, shortened: as §1

Tivantinib + Vorinostat = compound: O=C1NC(=O)[C@@H](c2cn3c4c(cccc24)CCC3)[C@@H]1c1c[nH]c2ccccc12 [Tivantinib] + O=C(CCCCCCC(=O)Nc1ccccc1)NO [Vorinostat] (partner 1 µM)
Procedure, shortened: as §1

Row | Cell Line | relative viability (Crenolanib + Trametinib; first compound 0.01 µM) | relative viability (Crenolanib + Trametinib; first compound 0.03162 µM) | relative viability (Crenolanib + Trametinib; first compound 0.1 µM) | relative viability (Crenolanib + Trametinib; first compound 0.3162 µM) | relative viability (Crenolanib + Trametinib; first compound 1 µM) | relative viability (Crenolanib + Alpelisib; first compound 0.01 µM) | relative viability (Crenolanib + Alpelisib; first compound 0.03162 µM) | relative viability (Crenolanib + Alpelisib; first compound 0.1 µM) | relative viability (Crenolanib + Alpelisib; first compound 0.3162 µM) | relative viability (Crenolanib + Alpelisib; first compound 1 µM) | relative viability (Crenolanib + Phenformin; first compound 0.01 µM) | relative viability (Crenolanib + Phenformin; first compound 0.03162 µM) | relative viability (Crenolanib + Phenformin; first compound 0.1 µM) | relative viability (Crenolanib + Phenformin; first compound 0.3162 µM) | relative viability (Crenolanib + Phenformin; first compound 1 µM) | relative viability (Tivantinib + Vorinostat; first compound 0.01 µM) | relative viability (Tivantinib + Vorinostat; first compound 0.03162 µM) | relative viability (Tivantinib + Vorinostat; first compound 0.1 µM) | relative viability (Tivantinib + Vorinostat; first compound 0.3162 µM)
1 | NCI-H838 | 0.564 | 0.501 | 0.489 | 0.53 | 0.439 | 1.02 | 0.991 | 0.968 | 1.22 | 0.846 | 0.562 | 0.586 | 0.632 | 0.539 | 0.527 | 0.728 | 0.724 | 0.693 | 0.776
2 | NCI-H1355 | 0.488 | 0.381 | 0.405 | 0.547 | 0.37 | 0.845 | 0.803 | 0.911 | 1.02 | 0.748 | 0.506 | 0.463 | 0.445 | 0.406 | 0.381 | 0.611 | 0.571 | 0.675 | 0.61
3 | NCI-H1395 | 1.05 | 1.03 | 0.976 | 1 | 1.14 | 1.1 | 1.14 | 1.1 | 0.914 | 0.938 | 0.448 | 0.455 | 0.497 | 0.469 | 0.436 | 0.749 | 0.802 | 0.722 | 0.666
4 | NCI-H1437 | 0.677 | 0.572 | 0.487 | 0.521 | 0.602 | 0.999 | 1.07 | 0.944 | 1.18 | 0.949 | 0.33 | 0.316 | 0.301 | 0.31 | 0.29 | 0.877 | 0.82 | 0.829 | 0.853
5 | NCI-H1651 | 0.864 | 0.835 | 0.783 | 0.825 | 0.847 | 0.89 | 0.903 | 0.893 | 0.982 | 0.867 | 0.331 | 0.36 | 0.35 | 0.336 | 0.308 | 0.554 | 0.612 | 0.559 | 0.542
6 | NCI-H1666 | 0.887 | 0.824 | 0.857 | 0.985 | 0.83 | 0.932 | 0.969 | 1.04 | 1.08 | 1.02 | 0.56 | 0.57 | 0.565 | 0.557 | 0.541 | 1.04 | 0.915 | 1 | 0.913
7 | NCI-H1734 | 0.768 | 0.725 | 0.682 | 0.806 | 0.765 | 0.707 | 0.664 | 0.653 | 0.855 | 0.737 | 0.38 | 0.405 | 0.387 | 0.421 | 0.39 | 0.8 | 0.745 | 0.768 | 0.818
8 | NCI-H1755 | 0.754 | 0.707 | 0.734 | 0.885 | 0.75 | 0.958 | 0.953 | 0.915 | 1.05 | 0.898 | 0.666 | 0.642 | 0.61 | 0.613 | 0.574 | 0.861 | 0.793 | 0.695 | 0.917
